Test results as given in US8936793B2, “Synthetic archaeal glycolipid adjuvants” (National Research Council of Canada, priority 2006, dated 2015).

What was measured:
Assay type in all cases: in vivo, C57BL/6 mice
[1] = test system: antigen specific EG.7 targets; assay: CTL activity in splenocytes of immunized mice, Cr51-assay; details: for CTL adjuvant activity, FIG. 7B: disaccharide-archaeol/DPPG/cholesterol (25/55/20, mol %), 12 weeks
Experimental: (§1) To determine adjuvant activity, various synthetic archaeosomes with OVA entrapped (OVA-archaeosomes) were used to immunize female C57BL/6 mice on days 0 and 21 (6-8 weeks old on first injection). Injections were subcutaneous at the tail base with 0.1 ml PBS containing 15 μg OVA entrapped in 0.2-0.63 mg lipids. Blood samples were collected from the tail vein for anti-OVA IgG/IgM antibody titration done by ELISA (13). In some cases faecal extracts were assayed for IgA (and IgG) to assess mucosal responses following systemic immunizations. Fresh faeces (about 30 mg dry weight) were collected from 4 mice/group, and extracted by adding 0.5 ml of phosphate buffered saline (pH 7.0) containing 10% fetal calf serum and 0.1% sodium azide. Homogenized samples were centrifuged and Elisa measured anti OVA antibody in supernatants. Spleens were collected to determine CTL activity using the Cr^51-assay with specific and non-specific targets EG.7 and EL-4, respectively (14). In Elispot assays antigen-specific CD8^+ T cell activity was measured in splenic cells from immunized mice by determining the number of SIINFEKL stimulated IFN-γ-secreting cells per 5×10^5 splenic cells (15).

[2] = test system: SIINFEKL stimulated IFN-γ-secreting cells; assay: Elispot assay of antigen-specific CD8+ T cell activity in splenic cells of immunized mice; details: for antigen-specific CD8+ T cell response, Elispot, FIG. 10A: gentiotriose archaeol/anionic lipid/cholesterol (35/35/30, mol %), weeks 6 and 8
Experimental: as §1, with “SIINFEKL” left out

[3] = test system: anti-OVA antibody; assay: Anti-OVA IgG/IgM antibody titration in blood of immunized mice by ELISA; details: gentiotriose archaeol/anionic lipid/cholesterol (35/35/30, mol %); 9 weeks
Experimental: as §1

[4] = test system: B16OVA cells; assay: Skin melanoma solid tumor model, protection upon vaccination; details: 5 mice/group, vaccinated s.c. with 15 μg OVA at 0 and 3 weeks, archaeal lipid/DPPG/cholesterol 25/55/20 mol %
Experimental: A skin melanoma solid tumor model was used in mice to evaluate protection achieved upon vaccination with synthetic archaeosomes. Mice were vaccinated subcutaneously with 15 μg OVA or synthetic archaeosome compositions containing 15 μg OVA at 0 and 3 weeks. Archaeosome lipid compositions were synthetic archaeal lipid/DPPG/cholesterol (25/55/20 mol %). At week 7 post first injection 5×10^6 B16OVA cells were injected subcutaneously in the shaved lower dorsal area. The time was recorded when solid tumours became evident.

CC(C)CCC[C@@H](C)CCC[C@@H](C)CCC[C@@H](C)CCOC[C@H](CO[C@@H]1O[C@H](CO[C@H]2O[C@H](CO)[C@H](O)[C@H](O)[C@H]2O)[C@@H](O)[C@H](O)[C@H]1O)OCC[C@H](C)CCC[C@H](C)CCC[C@H](C)CCCC(C)C [melibiose-archaeol]
CTL adjuvant activity, FIG. 7B [1]: strong

archaetidylglycerol [AG]
CTL adjuvant activity, FIG. 3 ([1]; 15 μg OVA s.c. 0 and 3 weeks, spleens 7 weeks after first immunization): little ability to serve as adjuvants | antigen-specific CD8+ T cell response, Elispot, FIG. 10A [2]: Best activity

CCCCCCCCCCCCCCCC(=O)OCC(COP(=O)(O)OCCN)OC(=O)CCCCCCCCCCCCCCC (stereo not drawn) [DPPE, reference compound]
antigen-specific CD8+ T cell response, Elispot, FIG. 10A [2]: relatively low CD8^+ T cell activity | Elispot activity as % of the activity found for DPPG ([2]; gentiotriose-archaeol/anionic lipid/cholesterol (35/35/30, mol %), 6 weeks, data not shown): 27% | antigen-specific antibody response, FIG. 10B [3]: equivalent in antibody response to archaeosomes containing archaetidylglycerol

archaetidylglycerophosphate-methyl [AGP-CH3]
antigen-specific CD8+ T cell response, Elispot, FIG. 10A [2]: Best activity

CCCCCCCCCCCCCCCC(=O)OCC(COP(=O)(O)OCC(O)CO)OC(=O)CCCCCCCCCCCCCCC (stereo not drawn) [DPPG, dipalmitoylphosphatidylglycerol, reference compound]
antigen-specific CD8+ T cell response, Elispot, FIG. 10A [2]: transient

archaetidylinositol
antigen-specific antibody response, FIG. 10B [3]: favoured the antibody CD4^+ T cell response over the CD8^+ T cell response

Sulfonoquinovosyl diacylglycerol [SQDG]
antigen-specific CD8+ T cell response, Elispot, FIG. 10A [2]: Best activity

CC(C)CCC[C@@H](C)CCC[C@@H](C)CCC[C@@H](C)CCOC[C@H](CO[C@@H]1O[C@H](CO)[C@@H](O[C@@H]2O[C@H](CO)[C@H](O)[C@H](O)[C@H]2O)[C@H](O)[C@H]1O)OCC[C@H](C)CCC[C@H](C)CCC[C@H](C)CCCC(C)C [lactose-archaeol]
CTL adjuvant activity, FIG. 7B [1]: strong

B1: OVA (protein, UniProt P01012 2-386, looked up)
Ovalbumin: GSIGAASMEFCFDVFKELKVHHANENIFYCPIAIMSALAMVYLGAKDSTRTQINKVVRFDKLPGFGDSIEAQCGTSVNVHSSLRDILNQITKPNDVYSFSLASRLYAEERYPILPEYLQCVKELYRGGLEPINFQTAADQARELINSWVESQTNGIIRNVLQPSSVDSQTAMVLVNAIVFKGLWEKAFKDEDTQAMPFRVTEQESKPVQMMYQIGLFRVASMASEKMKILELPFASGTMSMLVLLPDEVSGLEQLESIINFEKLTEWTSSNVMEERKIKVYLPRMKMEEKYNLTSVLMAMGITDVFSSSANLSGISSAESLKISQAVHAAHAEINEAGREVVGSAEAGVDAASVSEEFRADHPFLFCIKHIATNAVLFFGRCVSP
numbers of mice that developed a solid tumor ([4]; 6 days from subcutaneous injection of B16OVA tumor cells): 2 | numbers of mice that developed a solid tumor ([4]; 9 days from subcutaneous injection of B16OVA tumor cells): 3 | numbers of mice that developed a solid tumor ([4]; 16 days from subcutaneous injection of B16OVA tumor cells): 4 | numbers of mice that developed a solid tumor ([4]; 20 days from subcutaneous injection of B16OVA tumor cells): euthanized
